This note sets out measurements from US20100234364A1, “CCR2 INHIBITORS AND METHODS OF USE THEREOF” (priority 2007, published 2010).

Bounds are passed on as bounds.

T1 sequence (P41597 whole entry): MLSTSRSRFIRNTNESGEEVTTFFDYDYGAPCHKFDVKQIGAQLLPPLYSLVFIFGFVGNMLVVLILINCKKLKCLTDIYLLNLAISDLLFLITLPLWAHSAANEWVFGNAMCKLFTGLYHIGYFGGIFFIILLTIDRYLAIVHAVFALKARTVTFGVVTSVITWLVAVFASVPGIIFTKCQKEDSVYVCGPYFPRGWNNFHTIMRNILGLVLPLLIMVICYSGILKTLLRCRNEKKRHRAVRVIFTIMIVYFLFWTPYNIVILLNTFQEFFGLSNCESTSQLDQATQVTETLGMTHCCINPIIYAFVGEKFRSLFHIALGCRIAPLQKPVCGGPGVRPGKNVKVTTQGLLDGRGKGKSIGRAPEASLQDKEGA

The first assay has as its target T1, CCR2 (Homo sapiens, UniProt P41597).
T1 construct: chemokine expressing cells (such as THP-1 cells for CCR2 assay or MOLT-4 cells for CCR9 assay); host or cells: THP-1 cells
Briefly: chemotaxis (conventional migration), ligand binding or calcium mobilization (calcium flux) assays. The note with it: Table 2: activity in one of the chemotaxis. It counts as cell-based. The procedure: THP-1 cells and MOLT-4 cells were obtained from the American Type Culture Collection (Manassas, Va.) and cultured in RPMI tissue culture medium supplemented with 10% fetal calf serum (FCS) in a humidified 5% CO2 incubator at 37° C. Recombinant human chemokine proteins MCP-1 and TECK were obtained from R&D Systems (Minneapolis, Minn.). ^125I-labeled MCP-1 protein was obtained from Amersham (Piscataway, N.J.). ChemoTX® chemotaxis microchambers were purchased from Neuro Probe (Gaithersburg, Md.). CyQUANT® cell proliferation kits were purchased from Molecular Probes (Eugene, Oreg.). Calcium indicator dye Fluo-4 AM was purchased from Molecular Devices (Mountain View, Calif.).
Conventional-migration assay was used to determine the efficacy of potential receptor antagonists in blocking migration mediated through chemokines (such as CCR2 or CCR9). This assay was routinely performed using the ChemoTX® microchamber system with a 5-μm pore-sized polycarbonate membrane. To begin such an assay, chemokine expressing cells (such as THP-1 cells for CCR2 assay or MOLT-4 cells for CCR9 assay) were harvested by centrifugation of cell suspension at 1000 RPM on a GS-6R Beckman centrifuge. The cell pellet was resuspended in chemotaxis buffer (HBSS with 0.1% BSA) at 10×10^6cells/mL for CCR2 assay (5 ×10^6cells/mL for CCR9 assay). Test compounds at desired concentrations were prepared from 10 mM stock solutions by serial dilutions in chemotaxis buffer. An equal volume of cells and compounds were mixed and incubated at room temperature for 15 minutes. Afterwards, 20 μL of the mixture was transferred onto the porous membrane of a migration microchamber, with 29 μL of chemokine ligand (0.1 nM chemokine MCP-1 protein for CCR2 assay or 50 nm chemokine TECK protein for CCR9 assay) placed at the lower chamber. Following an incubation at 37° C. (90-minute for CCR2; 150-minute for CCR9), during which cells migrated […] the chemokine gradient, the assay was terminated by removing the cell drops from atop the filter. To quantify cells migrated across the membrane, 5 μL of 7X CyQUANT® solution was added to each well in the lower chamber, and the fluorescence signal measured on a Spectrafluor Plus fluorescence plate reader (TECAN, Durham, N.C.). The degree of inhibition was determined by comparing migration signals between compound-treated and untreated cells. IC50 calculation was further performed by non-linear squares regression analysis using Graphpad Prism (Graphpad Software, San Diego, Calif.).
Calcium flux assay measures an increase in intracellular calcium following ligand-induced receptor activation. In the screen of chemokine antagonists, it was used as a secondary assay carried out on a FLIPR® machine (Molecular Devices, Mountain View, Calif.). To begin an assay, chemokine expressing cells (such as THP-1 cells for CCR2 assay or MOLT-4 cells for CCR9 assay) were harvested by centrifugation of cell suspension, and resuspended to 1.5×10^6 cells/mL in HBSS (with 1% fetal calf serum). Cells were then labeled with a calcium indicator dye Fluo-4 AM for 45 minutes at 37° C. with gentle shaking. Following incubation, cells were pelletted, washed once with HBSS and resuspended in the same buffer at a density of 1.6×10^6 cells/mL. One hundred microliters of labeled cells were mixed with 10 μL of test compound at the appropriate concentrations on an assay plate. Chemokine protein (MCP-1 at a final concentration of 0.1 nM for CCR2 assay or TECK at a final concentration of 25 nM for CCR9 assay) to activate the receptor. The degree of inhibition was determined by comparing calcium signals between compound-treated and untreated cells. IC50 calculations were further performed by non-linear squares regression analysis using Graphpad Prism (Graphpad Software, San Diego, Calif.).
Ligand binding assay was used to determine the ability of potential CCR2 antagonists to block the interaction between CCR2 and its ligand MCP-1. […]
For the molecule `O=C(c1ccccc1)c1cc(F)ccc1NS(=O)(=O)c1ccc(Cl)c(Cl)c1` [drawing 300], the IC50 is under 500 nM. On the same count and under the same terms, the same measure for `O=C(c1ccccc1)c1ccc(F)cc1NS(=O)(=O)c1ccc(Cl)c(C(F)(F)F)c1`: under 500 nM; for `Cc1nnc(-c2cc(Cl)ccc2NS(=O)(=O)c2ccc(C(C)(C)C)cc2)c2ccccc12`: under 500 nM. Regarding `Cn1nc(-c2cc(Cl)ccc2NS(=O)(=O)c2ccc(Cl)c(C(F)(F)F)c2)c2ccccc21`, the IC50 is under 500 nM. Same read-out and setting: the same measure for `O=C(c1cccnc1)c1cc(F)c(F)cc1NS(=O)(=O)c1ccc(Cl)c(C(F)(F)F)c1`: under 500 nM; for `O=C(c1ccncc1)c1ccc(Cl)cc1NS(=O)(=O)c1ccc(Cl)c(C(F)(F)F)c1`: under 500 nM.

With `O=C(c1ccccc1)c1ccc(Br)cc1NS(=O)(=O)c1ccc(Cl)c(Cl)c1` [drawing 301], the IC50 was under 500 nM. Same read-out and setting: to `CO/N=C(/c1ccc(Cl)cc1NS(=O)(=O)c1ccc(Cl)c(C(F)(F)F)c1)c1ccnc2[nH]ccc12` belongs under 500 nM. The same measure, in the same setting: the same measure for `O=S(=O)(Nc1cc(Cl)ccc1C(O)c1ccccc1)c1ccc(Cl)c(C(F)(F)F)c1` (centres unmarked): under 500 nM; for `CC(C)(C)c1ccc(S(=O)(=O)Nc2ccc(Cl)cc2-c2nncc3ccccc23)cc1`: under 500 nM.

Consider `Cn1nnnc1-c1ccc(Cl)cc1NS(=O)(=O)c1ccc(Cl)c(C(F)(F)F)c1`, for which the IC50 is under 500 nM.

As to `O=C(c1ccccc1)c1ccc(Cl)cc1NS(=O)(=O)c1ccc(Cl)cc1`, the IC50 is under 500 nM. Regarding `O=C(c1ccccc1)c1ccc(Br)cc1NS(=O)(=O)c1ccc(Cl)c(C(F)(F)F)c1`, the IC50 was under 500 nM. Still for that read-out and setting: to `O=C(c1ccc(Cl)cc1NS(=O)(=O)c1ccc(Cl)c(Cl)c1)N1CCOCC1` belongs under 500 nM; to `CN(C(=O)c1ccc(Cl)cc1NS(=O)(=O)c1cccc(C(F)(F)F)c1)c1ccccn1`, under 500 nM.

On to `O=C(c1ccccc1F)c1cc(Cl)ccc1NS(=O)(=O)c1ccc(Cl)c(Cl)c1` [drawing 306], for which the IC50 is under 500 nM. On the same count and under the same terms, the same measure for `O=C(c1ccc(F)cc1)c1cc(Cl)ccc1NS(=O)(=O)c1ccc(Cl)c(Cl)c1` [drawing 305]: under 500 nM; for `O=S(=O)(Nc1cc(Cl)ccc1Oc1ccccc1)c1ccc(Cl)c(C(F)(F)F)c1`: under 500 nM; for `COC(=O)C1CCCN1C(=O)c1ccc(Cl)cc1NS(=O)(=O)c1ccc(Cl)c(C(F)(F)F)c1` (centres unmarked): under 500 nM. Still for that read-out and setting: the same measure for `O=C(c1ccccc1)c1ccc(Cl)cc1NS(=O)(=O)c1cccc(C(F)(F)F)c1`: under 500 nM; for `O=C(c1ccccc1)c1cc(Cl)ccc1NS(=O)(=O)c1ccc(Cl)cc1` [drawing 298]: under 500 nM; for `Cc1ccc(C(=O)c2cc(Cl)ccc2NS(=O)(=O)c2ccc(Cl)c(Cl)c2)cn1`: under 500 nM. Still for that read-out and setting: to `Cn1ccc(C(=O)c2cc(Cl)ccc2NS(=O)(=O)c2ccc(Cl)c(C(F)(F)F)c2)n1` [drawing 311] belongs under 500 nM; to `Cn1ccnc1C(O)c1cc(Cl)ccc1NS(=O)(=O)c1ccc(Cl)c(Cl)c1` (centres unmarked) [drawing 303], under 500 nM; to `O=S(=O)(Nc1ccc(Cl)cc1-c1nnn[nH]1)c1ccc(Cl)c(Cl)c1` [drawing 304], under 500 nM. For the molecule `O=C(c1cccnc1)c1cc(Cl)ccc1NS(=O)(=O)c1ccc(Cl)c(Cl)c1`, the IC50 is under 500 nM. On the same count and under the same terms, to `O=C(c1ccccc1)c1ccc(Cl)cc1NS(=O)(=O)c1ccc(Cl)c(C(F)(F)F)c1` [drawing 278] belongs under 500 nM. Turning to `O=C(c1ccccc1)c1cc(Cl)ccc1NS(=O)(=O)c1ccc(Cl)c(C(F)(F)F)c1` [drawing 302], the half-inhibitory concentration (IC50) is under 500 nM. On the same count and under the same terms, the same measure for `O=C(c1ccccc1)c1ccc(Cl)cc1NS(=O)(=O)c1ccc(F)c(F)c1`: under 500 nM.

Staying with this assay, now noted: Table 3: activity in one of the chemotaxis.
As to `O=C(c1cc(Br)ccc1NS(=O)(=O)c1ccc(Cl)cc1)N1CCOCC1`, the IC50 lay within 500 to 5000 nM. On the same count and under the same terms, to `O=S(=O)(Nc1ccc(Cl)cc1-c1ccccn1)c1ccc(Cl)c(C(F)(F)F)c1` belongs 500 to 5000 nM.

Consider `O=S(=O)(Nc1cc(Cl)ccc1-c1nnn[nH]1)c1ccc(Cl)c(C(F)(F)F)c1`, for which the concentration for half-maximal inhibition (IC50) fell in the range of 500 to 5000 nM. On the same count and under the same terms, the same measure for `O=S(=O)(Nc1ccc(Cl)cc1-c1ccccc1)c1ccc(Cl)c(Cl)c1`: 500 to 5000 nM; for `O=C(c1ccccc1)c1ccc(Br)cc1NS(=O)(=O)c1ccc(Cl)c(Cl)c1` [drawing 328]: 500 to 5000 nM; for `Cc1cc(S(=O)(=O)Nc2cc(Cl)ccc2C(=O)N2CCOc3cccnc32)ccc1Cl`: 500 to 5000 nM. Still for that read-out and setting: the same measure for `O=C(c1ccc(Cl)cc1NS(=O)(=O)c1ccc(Cl)c(C(F)(F)F)c1)N1CCCCC1` [drawing 371]: 500 to 5000 nM. Still for that read-out and setting: to `O=C(c1ccncc1)c1cc(Cl)ccc1NS(=O)(=O)c1ccc(Cl)cc1` belongs 500 to 5000 nM; to `O=S(=O)(Nc1ccc(Cl)cc1-c1nnn[nH]1)c1ccc(Cl)c(Cl)c1` [drawing 325], 500 to 5000 nM; to `Cn1ccc(C(=O)c2cc(Cl)ccc2NS(=O)(=O)c2ccc(Cl)c(C(F)(F)F)c2)n1` [drawing 322], 500 to 5000 nM.

In the case of `O=C(c1ccc(Cl)cc1NS(=O)(=O)c1ccc(Cl)cc1)N1CCOCC1`, the IC50 is 500 to 5000 nM. Take `O=C(c1ccccc1)c1ccc(Cl)cc1NS(=O)(=O)c1ccc(Cl)c(C(F)(F)F)c1` [drawing 344]: the concentration for half-maximal inhibition (IC50) was in the range of 500 to 5000 nM. For the molecule `O=S(=O)(Nc1ccc(Cl)cc1Oc1ccccc1)c1ccc(Cl)c(Cl)c1`, the IC50 lay within 500 to 5000 nM. Still for that read-out and setting: the same measure for `O=C(c1ccccc1)c1cc(Cl)ccc1NS(=O)(=O)c1ccc(Cl)c(Cl)c1` [drawing 342]: 500 to 5000 nM; for `O=C(O)C1CCCN1C(=O)c1ccc(Cl)cc1NS(=O)(=O)c1ccc(Cl)c(C(F)(F)F)c1` (centres unmarked): 500 to 5000 nM; for `O=C(c1ccc(F)cc1)c1cc(Cl)ccc1NS(=O)(=O)c1ccc(Cl)c(Cl)c1` [drawing 336]: 500 to 5000 nM. Same read-out and setting: to `O=C(c1ccccc1)c1cc(Cl)ccc1NS(=O)(=O)c1ccc(Cl)c([N+](=O)[O-])c1` belongs 500 to 5000 nM. The same measure, in the same setting: the same measure for `O=C(c1ccccc1)c1cc(Cl)ccc1NS(=O)(=O)c1cccc(C(F)(F)F)c1`: 500 to 5000 nM; for `CON=C(c1ccccc1)c1cc(Cl)ccc1NS(=O)(=O)c1ccc(Cl)c(Cl)c1`: 500 to 5000 nM. Take `Cn1ccnc1C(O)c1cc(Cl)ccc1NS(=O)(=O)c1ccc(Cl)c(Cl)c1` (centres unmarked) [drawing 327]: the IC50 lay within 500 to 5000 nM. The same measure, in the same setting: to `O=C(c1cc(Cl)ccc1NS(=O)(=O)c1cccc(Cl)c1)N1CCOCC1` belongs 500 to 5000 nM; to `Cn1ccnc1C(=O)c1cc(Cl)ccc1NS(=O)(=O)c1ccc(Cl)c([N+](=O)[O-])c1`, 500 to 5000 nM; to `O=C(c1ccccc1)c1cc(Cl)ccc1NS(=O)(=O)c1ccc(C(F)(F)F)cc1[N+](=O)[O-]`, 500 to 5000 nM. The same measure, in the same setting: the same measure for `COc1ccc(NS(=O)(=O)c2ccc(Cl)c(Cl)c2)c(C(=O)N2CCOCC2)c1`: 500 to 5000 nM; for `Cc1ccc(C(=O)c2ccccc2)c(NS(=O)(=O)c2ccc(Cl)c(C(F)(F)F)c2)c1`: 500 to 5000 nM; for `Cc1ccc(S(=O)(=O)Nc2ccc(Cl)cc2C(=O)c2ccccc2)cc1Cl`: 500 to 5000 nM. On the same count and under the same terms, the same measure for `O=C(c1ccccn1)c1cc(Cl)ccc1NS(=O)(=O)c1ccc(Cl)c(C(F)(F)F)c1`: 500 to 5000 nM; for `N#Cc1cc(S(=O)(=O)Nc2cc(Cl)ccc2C(=O)c2ccccc2)ccc1F`: 500 to 5000 nM.

`O=C(c1ccc(Cl)cc1NS(=O)(=O)c1ccc(Br)c(F)c1)N1CCOCC1`: the IC50 fell in the range of 500 to 5000 nM.

For the molecule `O=C(c1cc(Cl)ccc1NS(=O)(=O)c1ccc(Cl)cc1)N1CCCCC1`, the IC50 lay within 500 to 5000 nM.
